Source: the OligoGym collection
HELM strings list units from the 5' end as sugar, base in round brackets, then linkage (d deoxyribose, r ribose, m 2'-O-methyl, p phosphodiester). Strings are as the collection lists them; they lack the last nucleoside at the 3' end of the tested compound. [moe] = 2'-O-(2-methoxyethyl) (MOE); [sp] = phosphorothioate linkage; [m5C] = 5-methylcytosine

target: HTT; experiment: mouse, dose not given; conditions: ASO

| Substance | 3 h FOB score [score 0-7] |
| --- | --- |
| RNA1{[moe](G)[sp].[moe]([m5C])p.[moe](T)p.[moe](T)p.[moe](T)[sp].d(T)[sp].d(G)[sp].d(A)[sp].d(A)[sp].d(A)[sp].d(T)[sp].d(T)[sp].d([m5C])[sp].d(T)[sp].d([m5C])[sp].[moe]([m5C])p.[moe](A)p.[moe](T)[sp].[moe]([m5C])}$$$$ (last 3' nucleoside missing) | 6.75 |
| RNA1{[moe]([m5C])[sp].[moe](A)p.[moe]([m5C])p.[moe](A)p.[moe](G)[sp].d([m5C])[sp].d(T)[sp].d(T)[sp].d(T)[sp].d(T)[sp].d(A)[sp].d(T)[sp].d(T)[sp].d(T)[sp].d([m5C])[sp].[moe]([m5C])p.[moe](A)p.[moe](T)[sp].[moe](A)}$$$$ (last 3' nucleoside missing) | 0 |
| RNA1{[moe]([m5C])[sp].[moe](A)p.[moe]([m5C])p.[moe](A)p.[moe](G)p.[moe]([m5C])p.d(T)[sp].d(T)[sp].d(T)[sp].d(T)[sp].d(A)[sp].d(T)[sp].d(T)[sp].d(T)[sp].d([m5C])[sp].d([m5C])[sp].[moe](A)p.[moe](T)[sp].[moe](A)}$$$$ (last 3' nucleoside missing) | 0 |
